Measurements as given in the supplement of paper PMC10883282.

Assays:
Assay in all cases: relative viability vs DMSO control (72 h) (fraction); higher = more viable cells
SW684 = test system: SW684
Summary of the method: (§1)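 Sarcoma cell lines were seeded in 384-well plates at densities set to reach 80–90% confluence. After 24 h, 2.5 µl of serially diluted compound was added (source plates 10 mM to 0.0002 mM), and plates were held 72 h at 37 °C, 5% CO2, with 0.1% DMSO vehicle and a 5 µM positive control. Relative viability came from ATPLite readings as percent growth, averaged over up to triplicate wells. Data were rescaled so full viability equals 1 and none equals 0.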

KHOS-NP = test system: KHOS-NP
Summary of the method: as §1

SW872 = test system: SW872
Summary of the method: as §1

A204 = test system: A204
Summary of the method: as §1

HS729 = test system: HS729
Summary of the method: as §1

O=c1sn(-c2cccc3ccccc23)c(=O)n1Cc1ccccc1 [Tideglusib]
relative viability
Conditions	A204	HS729	KHOS-NP	SW684	SW872
0.00017 µM	1.09	1.1	1.11	1.17	1.1
0.00051 µM	1.131	1.07	1.112	1.19	1.09
0.00152 µM	1.12	1.07	1.1	1.21	1.09
0.00457 µM	1.12	1.04	1.114	1.14	1.09
0.01372 µM	1.14	1.03	1.12	1.16	1.09
0.04115 µM	1.11	1	1.113	1.14	1.1
0.1235 µM	1.12	0.972	1.108	1.17	1.08
0.3704 µM	1.12	0.956	1.1	1.11	1.05
1.111 µM	1.134	0.908	1.075	1.16	1.07
3.333 µM	1.1	0.933	1.08	1.09	1.07
10 µM	1.07	0.861	1.07	1.1	1.03

O=C1NC(=O)[C@@H](c2cn3c4c(cccc24)CCC3)[C@@H]1c1c[nH]c2ccccc12 [Tivantinib]
relative viability
Conditions	A204	HS729	KHOS-NP	SW684	SW872
0.00017 µM	1.08	0.901	1.036	1.15	0.993
0.00051 µM	1.05	0.924	1.04	1.119	0.973
0.00152 µM	1.09	0.917	1.036	1.16	1
0.00457 µM	1.11	0.899	1.03	1.123	0.996
0.01372 µM	1.1	0.916	1.04	1.09	0.979
0.04115 µM	1.07	0.865	1.04	1.13	1.008
0.1235 µM	1.06	0.864	1.04	1.1	0.967
0.3704 µM	1.05	0.862	1.05	0.961	0.933
1.111 µM	0.455	0.599	0.541	0.783	0.473
3.333 µM	0.439	0.621	0.487	0.601	0.485
10 µM	0.331	0.564	0.374	0.636	0.467

Cc1[nH]c(/C=C2\C(=O)Nc3ccc(F)cc32)c(C)c1C(=O)NCCN1CCCC1 [Toceranib]
relative viability
Conditions	A204	HS729	KHOS-NP	SW684	SW872
68 pM	1.05	0.982	1.09	1.1	1.05
0.000203 µM	1.01	0.926	1.106	1.178	1.05
0.0006 µM	1.06	0.901	1.0967	1.13	1.03
0.0018 µM	1.08	0.859	1.08	1.13	0.982
0.0055 µM	1.03	0.84	1.07	1.14	0.954
0.0165 µM	0.938	0.778	1.07	1.1	0.971
0.0494 µM	0.633	0.765	1.03	1.15	0.944
0.1481 µM	0.442	0.729	1.02	1.14	0.939
0.444 µM	0.394	0.715	1.02	1.12	0.886
1.333 µM	0.355	0.59	1	0.956	0.65
4 µM	0.327	0.414	0.775	0.755	0.521
